Measurements taken from article PMC8203801 (Communications Biology, 2021).

Molecular target: HSA (Homo sapiens, UniProt P02768)
Assay: Dansylsarcosine (DS) binding to prepared HSA, fluorescence titration
Details: range over samples
Method: Prepared HSA was diluted with phosphate-buffered saline (PBS) to a final concentration of 10 µmol/L, and 100 µL of this dilution was applied to a flat-bottomed, half area, polystyrene, black 96-well plate (Greiner Bio-One, Kremsmuenster, Austria). […] The resulting fluorescence was measured using FLUOstar OPTIMA microplate reader (BMG LABTECH, Ortenberg, Germany). Fluorescence excitation and emission detection were performed at 355 nm and 460 nm, respectively. Binding curves were fitted applying non-linear regression using GraphPad Prism Software (Version 5; GraphPad Software, San Diego, CA, USA) after subtraction of non-specific binding. Dissociation constants (Kd) were calculated at DS concentrations, where half-maximal fluorescence was reached.

Chain of HSA (P02768 25-609): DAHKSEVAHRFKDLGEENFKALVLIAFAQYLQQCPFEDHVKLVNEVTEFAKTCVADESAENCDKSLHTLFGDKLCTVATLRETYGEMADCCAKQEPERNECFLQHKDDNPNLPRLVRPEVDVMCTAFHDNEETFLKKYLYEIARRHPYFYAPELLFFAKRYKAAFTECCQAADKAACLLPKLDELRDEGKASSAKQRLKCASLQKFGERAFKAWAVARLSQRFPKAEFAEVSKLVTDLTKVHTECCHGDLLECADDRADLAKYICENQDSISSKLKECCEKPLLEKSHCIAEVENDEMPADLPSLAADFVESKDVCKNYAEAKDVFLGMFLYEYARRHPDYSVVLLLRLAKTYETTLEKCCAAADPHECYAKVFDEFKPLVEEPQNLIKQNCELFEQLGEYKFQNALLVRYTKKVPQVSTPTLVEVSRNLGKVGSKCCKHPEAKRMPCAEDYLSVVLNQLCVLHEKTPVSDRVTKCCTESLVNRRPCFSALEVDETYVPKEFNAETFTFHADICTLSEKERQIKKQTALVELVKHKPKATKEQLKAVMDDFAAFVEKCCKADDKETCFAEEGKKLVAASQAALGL

Question: How did the Kd (binding of dansylsarcosine to HSA of healthy donors) turn out when CN(C)c1cccc2c(S(=O)(=O)N(C)CC(=O)O)cccc12 [dansylsarcosine] was run?
Answer: 12 to 18 µM

Question: And the Kd (binding of dansylsarcosine to patients' HSA (chronic liver failure))?
Answer: 13 to 28 µM
